According to article PMC6001238, “Iterative Chemical Engineering of Vancomycin Leads to Novel Vancomycin Analogs With a High in Vitro Therapeutic Index” (Frontiers in Microbiology, 2018):
Converted amounts (≈) assume the structure as drawn.

What was measured:
E. faecalis VSE 1 = experiment: MIC, broth microdilution, vancomycin-sensitive E. faecalis (VSE 1); format: cell-based, Enterococcus faecalis; settings: for MIC: Enterococcus faecalis VSE 1 (vancomycin-sensitive), read-out: MIC; for MIC-fold improvement vs. vancomycin: VSE 1, ratio of MIC of vancomycin and MIC of analogue
How it was run: (§1)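 MIC values come from broth microdilution run to CLSI susceptibility-testing standards. Ultrapure water and uninoculated broth served as controls. In one series, vancomycin at a final 10 μM was co-dosed with the analogue or comparator antibiotic.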

E. faecalis VRE 6 = experiment: MIC, broth microdilution, vancomycin-resistant E. faecalis VRE 6 (VanA); format: cell-based, Enterococcus faecalis; settings: for MIC: Enterococcus faecalis VRE 6 (vancomycin-resistant), read-out: MIC; for MIC-fold improvement vs. vancomycin: VRE 6, ratio of MIC of vancomycin and MIC of analogue
How it was run: as §1

E. faecalis VRE 53 = experiment: MIC, broth microdilution, vancomycin-resistant E. faecalis VRE 53 (VanA); format: cell-based, Enterococcus faecalis; settings: for MIC: Enterococcus faecalis VRE 53 (vancomycin-resistant), read-out: MIC; for MIC-fold improvement vs. vancomycin: VRE 53, ratio of MIC of vancomycin and MIC of analogue
How it was run: as §1

E. faecalis VRE 29 = experiment: MIC, broth microdilution, vancomycin-resistant E. faecalis VRE 29 (VanA); format: cell-based, Enterococcus faecalis; settings: for MIC: Enterococcus faecalis VRE 29 (vancomycin-resistant), read-out: MIC; for MIC-fold improvement vs. vancomycin: VRE 29, ratio of MIC of vancomycin and MIC of analogue
How it was run: as §1

E. faecalis VRE 37 = experiment: MIC, broth microdilution, vancomycin-resistant E. faecalis VRE 37 (VanA); format: cell-based, Enterococcus faecalis; settings: for MIC: Enterococcus faecalis VRE 37 (vancomycin-resistant), read-out: MIC; for MIC-fold improvement vs. vancomycin: VRE 37, ratio of MIC of vancomycin and MIC of analogue
How it was run: as §1

[1] = test system: Murine leukemia (L1210) cells; experiment: Cytostatic activity, L1210 cell proliferation; format: cell-based; settings: mean ± SD of three experiments; highest concentration tested 250 µM; 2 days; read-out: Toxicity (IC50) L1210
How it was run: (§2)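 Coulter counter cell counts after 37°C culture with compound; IC50 = concentration giving 50% growth inhibition vs negative control. Incubation: L1210 2 d, CEM 3 d, HeLa 4 d. Suspension density before mixing with an equal volume of dilution: 300,000–500,000 cells/mL.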

[2] = test system: human T-lymphocyte (CEM) cells; experiment: Cytostatic activity, CEM cell proliferation; format: cell-based; settings: mean ± SD of three experiments; highest concentration tested 250 µM; 3 days; read-out: Toxicity (IC50) CEM
How it was run: as §2

[3] = test system: human cervix carcinoma (HeLa) cells; experiment: Cytostatic activity, HeLa cell proliferation; format: cell-based; settings: mean ± SD of three experiments; highest concentration tested 250 µM; 4 days; read-out: Toxicity (IC50) HeLa
How it was run: as §2

[4] = test system: L1210, CEM and HeLa cell lines; experiment: Cytostatic activity, average or summary over L1210, CEM and HeLa; format: cell-based; settings: average of L1210, CEM and HeLa; read-out: Toxicity (IC50) Average
How it was run: as §2

[5] = test system: S. aureus VSSA (ATCC 6538); experiment: MIC, broth microdilution, vancomycin-sensitive S. aureus (VSSA/MSSA, ATCC 6538); format: cell-based, Staphylococcus aureus; settings: for MIC: Staphylococcus aureus VSSA, read-out: MIC; for MIC-fold improvement vs. vancomycin: VSSA, ratio of MIC of vancomycin and MIC of analogue
How it was run: as §1

S. aureus VISA/HIP5827 = experiment: MIC, broth microdilution, vancomycin-intermediate S. aureus VISA HIP5827; format: cell-based, Staphylococcus aureus; settings: for MIC: Staphylococcus aureus VISA/HIP5827, read-out: MIC; for MIC-fold improvement vs. vancomycin: VISA/HIP5827, ratio of MIC of vancomycin and MIC of analogue
How it was run: as §1

S. aureus VRSA = experiment: MIC, broth microdilution, vancomycin-resistant S. aureus (VRSA); format: cell-based, Staphylococcus aureus; settings: for MIC: Staphylococcus aureus VRSA, read-out: MIC; for MIC-fold improvement vs. vancomycin: VRSA, ratio of MIC of vancomycin and MIC of analogue
How it was run: as §1

MRSA KS2 = experiment: MIC, broth microdilution, MRSA KS2; format: cell-based, Staphylococcus aureus; settings: for MIC-fold improvement vs. vancomycin: MRSA KS2, ratio of MIC of vancomycin and MIC of analogue; for MIC: Staphylococcus aureus MRSA KS2, read-out: MIC
How it was run: as §1

MRSA KS6 = experiment: MIC, broth microdilution, MRSA KS6; format: cell-based, Staphylococcus aureus; settings: for MIC-fold improvement vs. vancomycin: MRSA KS6, ratio of MIC of vancomycin and MIC of analogue; for MIC: Staphylococcus aureus MRSA KS6, read-out: MIC
How it was run: as §1

MRSA KS89 = experiment: MIC, broth microdilution, MRSA KS89; format: cell-based, Staphylococcus aureus; settings: for MIC-fold improvement vs. vancomycin: MRSA KS8, ratio of MIC of vancomycin and MIC of analogue; for MIC: Staphylococcus aureus MRSA KS8, read-out: MIC
How it was run: as §1

MRSA KS1 = experiment: MIC, broth microdilution, MRSA KS1; format: cell-based, Staphylococcus aureus; settings: for MIC-fold improvement vs. vancomycin: MRSA KS1, ratio of MIC of vancomycin and MIC of analogue; for MIC: Staphylococcus aureus MRSA KS1, read-out: MIC
How it was run: as §1

SMILES	MIC (E. faecalis VSE 1) [µM]	MIC-fold improvement vs. vancomycin (E. faecalis VSE 1)	MIC (E. faecalis VRE 6) [µM]	MIC-fold improvement vs. vancomycin (E. faecalis VRE 6)	MIC (E. faecalis VRE 53) [µM]	MIC-fold improvement vs. vancomycin (E. faecalis VRE 53)	MIC (E. faecalis VRE 29) [µM]	MIC-fold improvement vs. vancomycin (E. faecalis VRE 29)	MIC (E. faecalis VRE 37) [µM]	MIC-fold improvement vs. vancomycin (E. faecalis VRE 37)	IC50 [1] [µM]	IC50 [2] [µM]	IC50 [3] [µM]	IC50 [4] [µM]	MIC [5] [µM]	MIC-fold improvement vs. vancomycin [5]	MIC (S. aureus VISA/HIP5827) [µM]	MIC-fold improvement vs. vancomycin (S. aureus VISA/HIP5827)	MIC (S. aureus VRSA) [µM]	MIC-fold improvement vs. vancomycin (S. aureus VRSA)	other results
CCCCCc1ccc(C(=O)NCCCNC(=O)C2NC(=O)C3NC(=O)C(NC(=O)C4NC(=O)C(CC(N)=O)NC(=O)C(NC(=O)C(CC(C)C)NC)C(O)c5ccc(c(Cl)c5)Oc5cc4cc(c5OC4OC(CO)C(O)C(O)C4OC4CC(C)(N)C(O)C(C)O4)Oc4ccc(cc4Cl)C3O)c3ccc(O)c(c3)-c3c(O)cc(O)cc32)cc1 (centres unmarked) [Vanc-49]	0.39 (≈ 0.655 µg/mL)	4	6.25 (≈ 10.5 µg/mL)	32	6.25 (≈ 10.5 µg/mL)	64	6.25 (≈ 10.5 µg/mL)	64	6.25 (≈ 10.5 µg/mL)	64	63 ± 8	36 ± 8	99 ± 1	66	0.20 (≈ 0.336 µg/mL)	4	0.39 (≈ 0.655 µg/mL)	16	0.39 (≈ 0.655 µg/mL)	256	MIC-fold improvement vs. vancomycin (MRSA KS2): 4; MIC (MRSA KS2): 0.20 µM (≈ 0.336 µg/mL); MIC-fold improvement vs. vancomycin (MRSA KS6): 4; MIC (MRSA KS6): 0.20 µM (≈ 0.336 µg/mL); MIC-fold improvement vs. vancomycin (MRSA KS89): 4; MIC (MRSA KS89): 0.20 µM (≈ 0.336 µg/mL); MIC-fold improvement vs. vancomycin (MRSA KS1): >8; MIC (MRSA KS1): <0.10 µM
CN[C@H](CC(C)C)C(=O)N[C@H]1C(=O)N[C@@H](CC(N)=O)C(=O)N[C@H]2C(=O)N[C@H]3C(=O)N[C@H](C(=O)N[C@H](C(=O)NCC(=O)Nc4ccc(F)cc4F)c4cc(O)cc(O)c4-c4cc3ccc4O)[C@H](O)c3ccc(c(Cl)c3)Oc3cc2cc(c3O[C@@H]2O[C@H](CO)[C@@H](O)[C@H](O)[C@H]2O[C@H]2C[C@](C)(N)[C@H](O)[C@H](C)O2)Oc2ccc(cc2Cl)[C@H]1O [Vanc-16]	0.78 (≈ 1.26 µg/mL)	2	12.5 (≈ 20.2 µg/mL)	16	25 (≈ 40.4 µg/mL)	16	>50	<8	50 (≈ 80.9 µg/mL)	8	> 250	> 250	184 ± 60	228	0.78 (≈ 1.26 µg/mL)	1	0.78 (≈ 1.26 µg/mL)	8	25 (≈ 40.4 µg/mL)	4	MIC-fold improvement vs. vancomycin (MRSA KS2): 1; MIC (MRSA KS2): 0.78 µM (≈ 1.26 µg/mL); MIC-fold improvement vs. vancomycin (MRSA KS6): 1; MIC (MRSA KS6): 0.78 µM (≈ 1.26 µg/mL); MIC-fold improvement vs. vancomycin (MRSA KS89): 1; MIC (MRSA KS89): 0.78 µM (≈ 1.26 µg/mL); MIC-fold improvement vs. vancomycin (MRSA KS1): 1; MIC (MRSA KS1): 0.78 µM (≈ 1.26 µg/mL)
